Results on two molecules are retold here after patent US7148240B2, “Aminoalkoxybenzoyl-benzofuran or benzothiophene derivatives, method for preparing same and compositions containing same” (Sanofi-Aventis, priority 2000, dated 2006).

Molecule `CCCCc1oc2cc(C)c(C(=O)OC)cc2c1C(=O)c1ccc(OCCCN2CCCCC2)cc1.Cl` had a melting point of 181 to 183 °C.
With `CCCCc1oc2cccc(C(=O)OC)c2c1C(=O)c1ccc(OCCCN2CCCCC2)cc1.O=C(O)C(=O)O` [Example 31, Methyl 2-butyl-3-[4-(3-(1-piperidinyl)propoxy]benzoyl]-1-benzofuran-4-carboxylate oxalate], the melting point stood at 160 °C.

As a reminder, the melting point is the temperature of the solid-liquid transition.
